# According to patent US6486153B1, “Phenylindole derivatives as 5-HT2A receptor ligands” (Merck Sharp & Dohme Ltd., priority 1997, dated 2002):
# Structures can show the parent of a compound that is named as a salt.
# Test system: not given
# Conditions: not given
row,melting point [°C],Structure (SMILES)
1,260 to 262,COc1cccc2[nH]c(-c3ccccc3)c(CCN3CCCCC3)c12
2,121 to 122,Brc1ccc2[nH]c(-c3ccccc3)c(CCN3CCCCC3)c2c1 (as salt: oxalate)
3,206 to 207,Brc1cccc2c(CCN3CCCCC3)c(-c3ccccc3)[nH]c12 (as salt: oxalate)
4,178 to 179,Clc1cccc2c(CCN3CCCCC3)c(-c3ccccc3)[nH]c12 (as salt: oxalate)
5,163 to 164,Cc1ccc2[nH]c(-c3ccccc3)c(CCN3CCCCC3)c2c1 (as salt: oxalate)
6,214 to 215,Fc1ccc2c(CCN3CCCCC3)c(-c3ccccc3)[nH]c2c1 (as salt: oxalate)
7,> 230,Brc1cccc2[nH]c(-c3ccccc3)c(CCN3CCCCC3)c12 (as salt: oxalate)
8,> 230,Brc1ccc2c(CCN3CCCCC3)c(-c3ccccc3)[nH]c2c1 (as salt: oxalate)
9,159 to 161,Cc1cccc2c(CCN3CCCCC3)c(-c3ccccc3)[nH]c12 (as salt: oxalate)
10,185 to 187,Fc1cc(F)c2[nH]c(-c3ccccc3)c(CCN3CCCCC3)c2c1 (as salt: oxalate)
11,129 to 131,c1ccc(-c2ccc3c(CCN4CCCCC4)c(-c4ccccc4)[nH]c3c2)cc1 (as salt: oxalate)
12,203 to 205,COc1cccc2c(CCN3CCCCC3)c(-c3ccccc3)[nH]c12 (as salt: oxalate)
13,240,CC(Cc1c(-c2ccccc2)[nH]c2ccccc12)N1CCCCC1 (centres unmarked) (as salt: oxalate)
14,141 to 143,Fc1ccc2[nH]c(-c3ccccc3)c(CCN3CCCCC3)c2c1 (as salt: trifluoroacetic acid salt)

# Biological target: human dopamine D2 receptor (Homo sapiens, UniProt P14416)
# Conditions: cited from earlier work
# Sequence of human dopamine D2 receptor (P14416 whole entry): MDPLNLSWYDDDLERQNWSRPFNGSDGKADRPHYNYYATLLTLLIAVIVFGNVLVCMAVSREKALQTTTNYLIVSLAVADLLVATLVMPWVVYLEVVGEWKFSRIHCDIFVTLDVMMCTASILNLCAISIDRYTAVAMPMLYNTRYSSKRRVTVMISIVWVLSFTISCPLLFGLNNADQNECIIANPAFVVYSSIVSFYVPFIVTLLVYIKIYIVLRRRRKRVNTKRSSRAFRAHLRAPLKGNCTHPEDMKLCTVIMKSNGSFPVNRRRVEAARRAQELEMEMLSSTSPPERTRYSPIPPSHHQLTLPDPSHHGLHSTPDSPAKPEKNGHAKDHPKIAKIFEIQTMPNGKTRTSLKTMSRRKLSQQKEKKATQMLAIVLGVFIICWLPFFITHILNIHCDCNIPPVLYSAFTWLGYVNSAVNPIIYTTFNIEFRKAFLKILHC
row,Structure (SMILES),activity at the human dopamine D2 receptor
1,"COc1cccc(C(O)C2CCN(CCc3ccc(F)cc3)CC2)c1OC (stereo not drawn) [MDL-100,907, (+)-α-(2,3-dimethoxyphenyl)-1-[2-(4-fluorophenyl)ethyl]-4-piperidinemethanol]",essentially devoid of activity

# Test system: schizophrenic patients
# Conditions: multicentre, placebo-controlled study; cited from earlier work
Structure (SMILES),antipsychotic efficacy in clinical study,neurological adverse effects in clinical study
"COc1cccc(C(O)C2CCN(CCc3ccc(F)cc3)CC2)c1OC (stereo not drawn) [MDL-100,907, (+)-α-(2,3-dimethoxyphenyl)-1-[2-(4-fluorophenyl)ethyl]-4-piperidinemethanol]",demonstrated efficacy,no neurological adverse effects
